The test concerns the target hQC (Homo sapiens, UniProt Q16769). Briefly: Inhibitor assay for glutaminyl cyclase activity (fluorometric, H-Gln-βNA / H-Gln-AMC). It is filed as biochemical. The procedure: All measurements were performed with a BioAssay Reader HTS-7000Plus for microplates (Perkin Elmer) at 30° C. QC activity was evaluated fluorometrically using H-Gln-βNA. The samples consisted of 0.2 mM fluorogenic substrate, 0.25 U pyroglutamyl aminopeptidase (Unizyme, Hørsholm, Denmark) in 0.2 M Tris/HCl, pH 8.0 containing 20 mM EDTA and an appropriately diluted aliquot of QC in a final volume of 250 μl. Excitation/emission wavelengths were 320/410 nm. The assay reactions were initiated by addition of glutaminyl cyclase. QC activity was determined from a standard curve of β-naphthylamine under assay conditions. One unit is defined as the amount of QC catalyzing the formation of 1 μmol pGlu-βNA from H-Gln-βNA per minute under the described conditions.
In a second fluorometric assay, QC activity was determined using H-Gln-AMC as substrate. Reactions were carried out at 30° C. utilizing the NOVOStar reader for microplates (BMG labtechnologies). The samples consisted of varying concentrations of the fluorogenic substrate, 0.1 U pyroglutamyl aminopeptidase (Qiagen) in 0.05 M Tris/HCl, pH 8.0 containing 5 mM EDTA and an appropriately diluted aliquot of QC in a final volume of 250 μl. Excitation/emission wavelengths were 380/460 nm. The assay reactions were initiated by addition of glutaminyl cyclase. QC activity was determined from a standard curve of 7-amino-4-methylcoumarin under assay conditions. The kinetic data were evaluated using GraFit sofware.
For inhibitor testing, the sample composition was the same as described above, except of the putative inhibitory compound added. For a rapid test of QC-inhibition, samples contained 4 mM of the respective inhibitor and a substrate concentration at 1 KM. For detailed investigations of the inhibition and determination of Ki-values, influence of the inhibitor on the auxiliary enzymes was investigated first. In every case, there was no influence on either enzyme detected, thus enabling the reliable determination of the QC inhibition. The inhibitory constant was evaluated by fitting the set of progress curves to the general equation for competitive inhibition using GraFit software.

[1] abbreviates: compound from preparative synthesis, purified, read-out: IC50 hQC.

Where two headings read alike, the source gives them in different places.

Sequence of hQC (Q16769 29-361): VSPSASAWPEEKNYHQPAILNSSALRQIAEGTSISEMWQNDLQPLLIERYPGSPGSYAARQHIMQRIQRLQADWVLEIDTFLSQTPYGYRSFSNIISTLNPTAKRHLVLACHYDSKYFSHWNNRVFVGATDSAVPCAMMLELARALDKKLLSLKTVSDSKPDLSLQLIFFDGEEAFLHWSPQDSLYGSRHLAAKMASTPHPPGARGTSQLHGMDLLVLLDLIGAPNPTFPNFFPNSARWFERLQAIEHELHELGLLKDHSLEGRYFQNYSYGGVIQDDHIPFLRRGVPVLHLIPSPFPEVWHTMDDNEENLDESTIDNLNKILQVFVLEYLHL

Turning to `Cc1ccc(C2C(C(C)C)=C(O)C(=O)N2CCCn2ccnc2)o1` (stereo not drawn) [Compound 57, 3-Hydroxy-1-(3-imidazol-1-yl-propyl)-4-isopropyl-5-(5-methyl-furan-2-yl)-1,5-dihydro-pyrrol-2-one], the IC50 (read-out: IC50) came to 1.3 µM.

Consider `CC(C)C1=C(O)C(=O)N(CCCn2ccnc2)C1c1ccc2[nH]ccc2c1` (stereo not drawn) [Compound 58, 3-Hydroxy-1-(3-imidazol-1-yl-propyl)-5-(1H-indol-5-yl)-4-isopropyl-1,5-dihydro-pyrrol-2-one], for which the IC50 (read-out: IC50) was determined as 3.1 µM.

In the case of `COc1ccc(C2C(C(C)C)=C(O)C(=O)N2CCCn2ccnc2)cc1` (stereo not drawn) [Compound 59, 3-Hydroxy-1-(3-imidazol-1-yl-propyl)-4-isopropyl-5-(4-methoxy-phenyl)-1,5-dihydro-pyrrol-2-one], the IC50 (read-out: IC50) is 0.4 µM.

With `CC(C)C1=C(O)C(=O)N(CCCn2ccnc2)C1c1ccccc1O` (stereo not drawn) [Compound 60, 3-Hydroxy-5-(2-hydroxy-phenyl)-1-(3-imidazol-1-yl-propyl)-4-isopropyl-1,5-dihydro-pyrrol-2-one], the 50% inhibitory concentration (IC50) (read-out: IC50) was found to be 9.4 µM.

Turning to `Cc1ccc(C2C(C(C)C)=C(O)C(=O)N2CCCn2ccnc2)cc1C` (stereo not drawn) [Compound 61, 5-(3,4-Dimethyl-phenyl)-3-hydroxy-1-(3-imidazol-1-yl-propyl)-4-isopropyl-1,5-dihydro-pyrrol-2-one], the IC50 (read-out: IC50) is 0.4 µM.

For the molecule `CCCCCC1C(C(C)C)=C(O)C(=O)N1CCCn1ccnc1` (stereo not drawn) [Compound 62, 3-Hydroxy-1-(3-imidazol-1-yl-propyl)-4-isopropyl-5-pentyl-1,5-dihydro-pyrrol-2-one], where the note is “read-out: IC50”, the IC50 came to 0.04 µM.

For the molecule `CC(C)C1=C(O)C(=O)N(CCCn2ccnc2)C1c1ccc(CO)o1` (stereo not drawn) [Compound 63, 3-Hydroxy-5-(5-hydroxymethyl-furan-2-yl)-1-(3-imidazol-1-yl-propyl)-4-isopropyl-1,5-dihydro-pyrrol-2-one], under “read-out: IC50”, the IC50 was 3.1 µM.

On to `CC(C)C1=C(O)C(=O)N(CCCn2ccnc2)C1/C=C/c1ccccc1` (stereo not drawn) [Compound 64, 3-Hydroxy-1-(3-imidazol-1-yl-propyl)-4-isopropyl-5-(styryl)-1,5-dihydro-pyrrol-2-one], for which the IC50 (read-out: IC50) stood at 3.1 µM.

For `CC(C)C1=C(O)C(=O)N(CCCn2ccnc2)C1c1ccccc1` (stereo not drawn) [Compound 65, 3-Hydroxy-1-(3-imidazol-1-yl-propyl)-4-isopropyl-5-phenyl-1,5-dihydro-pyrrol-2-one], the half-maximal inhibitory concentration (IC50) (read-out: IC50) came to 3.1 µM.

For the molecule `CC(C)C1=C(O)C(=O)N(CCCn2ccnc2)C1C1CCC=CO1` (stereo not drawn) [Compound 66, 5-(3,4-Dihydro-2H-pyran-2-yl)-3-hydroxy-1-(3-imidazol-1-yl-propyl)-4-isopropyl-1,5-dihydro-pyrrol-2-one], the IC50 (read-out: IC50) came to 2.2 µM.

Regarding `CC(C)C1=C(O)C(=O)N(CCCn2ccnc2)C1C1=CCCCC1` (stereo not drawn) [Compound 67, 5-Cyclohex-1-enyl-3-hydroxy-1-(3-imidazol-1-yl-propyl)-4-isopropyl-1,5-dihydro-pyrrol-2-one], the IC50 (read-out: IC50) is 2.2 µM.

On to `CC(C)C1=C(O)C(=O)N(CCCn2ccnc2)C1Cc1ccccc1` (stereo not drawn) [Compound 68, 5-Benzyl-3-hydroxy-1-(3-imidazol-1-yl-propyl)-4-isopropyl-1,5-dihydro-pyrrol-2-one], for which the IC50 (read-out: IC50) stood at 0.04 µM.

Turning to `CC(C)C1=C(O)C(=O)N(CCCn2ccnc2)C1c1ccccn1` (stereo not drawn) [Compound 69, 3-Hydroxy-1-(3-imidazol-1-yl-propyl)-4-isopropyl-5-pyridin-2-yl-1,5-dihydro-pyrrol-2-one], the IC50 (read-out: IC50) worked out at 4.9 µM.

With `CC(C)C1=C(O)C(=O)N(CCCn2ccnc2)C1c1ccncc1` (stereo not drawn) [Compound 70, 3-Hydroxy-1-(3-imidazol-1-yl-propyl)-4-isopropyl-5-pyridin-4-yl-1,5-dihydro-pyrrol-2-one], the IC50 (read-out: IC50) came to 4.9 µM.

As for `CC(C)C1=C(O)C(=O)N(CCCn2ccnc2)C1c1cccs1` (stereo not drawn) [Compound 71, 3-Hydroxy-1-(3-imidazol-1-yl-propyl)-4-isopropyl-5-thiophen-2-yl-1,5-dihydro-pyrrol-2-one], the IC50 (read-out: IC50) amounted to 4 µM.

In the case of `CC(C)C1=C(O)C(=O)N(CCCn2ccnc2)C1c1ccco1` (stereo not drawn) [Compound 72, 5-Furan-2-yl-3-hydroxy-1-(3-imidazol-1-yl-propyl)-4-isopropyl-1,5-dihydro-pyrrol-2-one], for the setting “read-out: IC50”, the IC50 stood at 2.2 µM.

For `CC(C)C1=C(O)C(=O)N(CCCn2ccnc2)C1c1cccc(Cl)c1` (stereo not drawn) [Compound 73, 5-(3-Chloro-phenyl)-3-hydroxy-1-(3-imidazol-1-yl-propyl)-4-isopropyl-1,5-dihydro-pyrrol-2-one], the IC50 (read-out: IC50) worked out at 3.1 µM.

Consider `CC(C)C1=C(O)C(=O)N(CCCn2ccnc2)C1c1ccccc1F` (stereo not drawn) [Compound 74, 5-(2-Fluoro-phenyl)-3-hydroxy-1-(3-imidazol-1-yl-propyl)-4-isopropyl-1,5-dihydro-pyrrol-2-one], for which the IC50 (read-out: IC50) came out at 2.2 µM.

For the molecule `CC(C)C1=C(O)C(=O)N(CCCn2ccnc2)C1c1cccc(O)c1` (stereo not drawn) [Compound 75, 3-Hydroxy-5-(3-hydroxy-phenyl)-1-(3-imidazol-1-yl-propyl)-4-isopropyl-1,5-dihydro-pyrrol-2-one], under “read-out: IC50”, the IC50 came out at 4.9 µM.

For the molecule `O=C1C(O)=C(c2ccccc2)C(c2cc(Cl)cc(Cl)c2O)N1CCCn1ccnc1` (stereo not drawn) [Compound 76, 5-(3,5-Dichloro-2-hydroxy-phenyl)-3-hydroxy-1-(3-imidazol-1-yl-propyl)-4-phenyl-1,5-dihydro-pyrrol-2-one], the IC50 (read-out: IC50) was 0.04 µM.

As for `Cc1ccc(C2C(c3ccccc3)=C(O)C(=O)N2CCCn2ccnc2)cc1` (stereo not drawn) [Compound 77, 3-Hydroxy-1-(3-imidazol-1-yl-propyl)-4-phenyl-5-p-tolyl-1,5-dihydro-pyrrol-2-one], the IC50 is, setting by setting: under setting [1], 1.91 µM; (read-out: IC50) 0.04 µM.

For `CCC/C=C/C1C(c2ccccc2)=C(O)C(=O)N1CCCn1ccnc1` (stereo not drawn) [Compound 78, 3-Hydroxy-1-(3-imidazol-1-yl-propyl)-5-(pent-1-enyl)-4-phenyl-1,5-dihydro-pyrrol-2-one], where the note is “read-out: IC50”, the concentration for half-maximal inhibition (IC50) worked out at 0.04 µM.

Take `CCC(C)C1C(c2ccccc2)=C(O)C(=O)N1CCCn1ccnc1` (stereo not drawn) [Compound 79, 5-sec-Butyl-3-hydroxy-1-(3-imidazol-1-yl-propyl)-4-phenyl-1,5-dihydro-pyrrol-2-one]: the IC50 (read-out: IC50) came out at 0.4 µM.

For the molecule `CCCC1C(c2ccccc2)=C(O)C(=O)N1CCCn1ccnc1` (stereo not drawn) [Compound 80, 3-Hydroxy-1-(3-imidazol-1-yl-propyl)-4-phenyl-5-propyl-1,5-dihydro-pyrrol-2-one], for the setting “read-out: IC50”, the IC50 is 0.4 µM.

With `O=C1C(O)=C(c2ccccc2)C(c2cc[nH]n2)N1CCCn1ccnc1` (stereo not drawn) [Compound 81, 3-Hydroxy-1-(3-imidazol-1-yl-propyl)-4-phenyl-5-(1H-pyrazol-3-yl)-1,5-dihydro-pyrrol-2-one], under “read-out: IC50”, the IC50 came to 3.1 µM.

For `O=C1C(O)=C(c2ccccc2)C(C(O)CO)N1CCCn1ccnc1` (stereo not drawn) [Compound 82, 5-(1,2-Dihydroxy-ethyl)-3-hydroxy-1-(3-imidazol-1-yl-propyl)-4-phenyl-1,5-dihydro-pyrrol-2-one], for the setting “read-out: IC50”, the IC50 is 3.1 µM.

For `CC(C)/C=C/C1C(c2ccccc2)=C(O)C(=O)N1CCCn1ccnc1` (stereo not drawn) [Compound 83, 3-Hydroxy-1-(3-imidazol-1-yl-propyl)-5-(3-methyl-but-1-enyl)-4-phenyl-1,5-dihydro-pyrrol-2-one], under “read-out: IC50”, the IC50 came to 6.7 µM.

Take `Cc1ccc(C2C(c3ccccc3)=C(O)C(=O)N2CCCn2ccnc2)o1` (stereo not drawn) [Compound 84, 3-Hydroxy-1-(3-imidazol-1-yl-propyl)-5-(5-methyl-furan-2-yl)-4-phenyl-1,5-dihydro-pyrrol-2-one]: the IC50 (read-out: IC50) came to 2.2 µM.

Turning to `O=C1C(O)=C(c2ccccc2)C(c2ccc3[nH]ccc3c2)N1CCCn1ccnc1` (stereo not drawn) [Compound 85, 3-Hydroxy-1-(3-imidazol-1-yl-propyl)-5-(1H-indol-5-yl)-4-phenyl-1,5-dihydro-pyrrol-2-one], the IC50 was 0.64 µM under setting [1] and 0.04 µM (read-out: IC50).

As to `COc1ccc(C2C(c3ccccc3)=C(O)C(=O)N2CCCn2ccnc2)cc1` (stereo not drawn) [Compound 86, 3-Hydroxy-1-(3-imidazol-1-yl-propyl)-5-(4-methoxy-phenyl)-4-phenyl-1,5-dihydro-pyrrol-2-one], the IC50 by setting is: under setting [1], 1.23 µM; (read-out: IC50) 0.04 µM.

`O=C1C(O)=C(c2ccccc2)C(c2ccccc2O)N1CCCn1ccnc1` (stereo not drawn) [Compound 87, 3-Hydroxy-5-(2-hydroxy-phenyl)-1-(3-imidazol-1-yl-propyl)-4-phenyl-1,5-dihydro-pyrrol-2-one]: the IC50 (read-out: IC50) is 3.1 µM.

`Cc1ccc(C2C(c3ccccc3)=C(O)C(=O)N2CCCn2ccnc2)cc1C` (stereo not drawn) [Compound 88, 5-(3,4-Dimethyl-phenyl)-3-hydroxy-1-(3-imidazol-1-yl-propyl)-4-phenyl-1,5-dihydro-pyrrol-2-one]: for the setting “read-out: IC50”, the IC50 was 1.3 µM.

On to `CCCCCC1C(c2ccccc2)=C(O)C(=O)N1CCCn1ccnc1` (stereo not drawn) [Compound 89, 3-Hydroxy-1-(3-imidazol-1-yl-propyl)-5-pentyl-4-phenyl-1,5-dihydro-pyrrol-2-one], for which, for the setting “read-out: IC50”, the IC50 was found to be 0.04 µM.

By IC50 is commonly meant the concentration that gives 50% inhibition.
